Measurements from patent publication US6790644B2, “1,3-dicarbonyl-dioxygenase—a new c-c-bond cleaving enzyme” (Biocatalytics, Inc., priority 2001, dated 2004).
Where two headings read alike, the source gives them in different places.

Assays:
[1] = target: T1, 1,3-dicarbonyl-dioxygenase (Acinetobacter johnsonii, UniProt Q8GNT2); assay: Products of various substrates determined by HPLC (cleavage stoichiometry, partially purified enzyme); assay type: biochemical; details: substrate 4 mM, 25° C., one hour
Source text: The products of the enzyme reaction were identified directly from the reaction mixture by in situ ^1H-NMR-spectroscopy (Pokorny, D., L. Brecker, M. Pogorevc, H. Griengl, W. Steiner, T. Kappe, and D. W. Ribbons. 1999. Proton-Nuclear Magnetic Resonance Analyses of the Substrate Specificity of a β-Ketolase from Pseudomonas putida, Acetopyruvate Hydrolase. J. Bacteriol. 181: 5051-5059.). Therefore a 200 MHz narrow bore magnet (Varian Gemini™ 2000, Varian, Inc., Palo Alto, Calif.) and a 5 mm broadband probe head were used. The NMR tube was rotated at 20 rps. For a lock a D2O vortex capillary was added to avoid ^1H/D exchange reactions. The overwhelming water-signal was suppressed with a presaturation method (Guéron, M., P. Plateau and M. Decorps. 1991. Solvent signal suppression in NMR. Prog. NMR Spectrosc. 23: 135-209. Hore, J. P. 1989. Solvent suppression. p. 64. In N. J. Oppenheimer and J. T. James (eds.), Methods Enzymol. 176. Academic Press, Inc., San Diego.). The following parameters were adjusted for a ^1H-frequency of 200 MHz: presaturation-duration of 1.0 s, ^1H-pulse-angle of 90, an acquisition-time of 2.0 s and a relaxation delay of 1.5 s. 64 Scans were accumulated and after a zero filling to 32 k datapoints the free induction decay was Fourier transformed. The water signal (4.70 ppm) was used as a reference. For standard reaction analytics HPLC-measurements were performed (Hewlett-Packard, column: Aminex-HPX-87H, UV- and RI-detector, eluent Sulfuric acid 0.005 M).
The cleavage-stoichiometry of several non-symmetrical substrates was also investigated, in order to be able to determine the regiospecificity of the enzyme. This was done by conversion of the respective substrate with partially purified enzyme. Methylglyoxal and acetate formed were measured by HPLC. Remaining substrate was calculated.

[2] = target: T1, 1,3-dicarbonyl-dioxygenase; assay: Reaction analysis with purified enzyme by in situ 1H-NMR / HPLC; assay type: biochemical; details: no cofactor added
[3] = target: T1, 1,3-dicarbonyl-dioxygenase; assay: Substrate spectrum / apparent kinetic constants of purified 1,3-dicarbonyl-dioxygenase (UV assay and oxygen electrode)
Method: (§1) The reaction rates were determined by using the microcomputer regression program provided with the spectrophotometer (Winspec) based on the first ten absorbance measurements made at 5-s intervals.
Substrates were dissolved at a concentration of 0.001-1 mM in KH2PO4-buffer, 50 mM, pH 7.5 using a 10 mM stock solution. Duplicate absorption-measurements of 20 different dilutions were performed at 25° C. The molar absorption coefficients were calculated by linear regression.
(§2) Oxygen consumption during the enzyme reaction was measured with an oxygen-electrode-cell (Digital Oxygen System Model 10, Rank Brothers Ltd., Cambridge, England) as described previously (Beechey, R. B. and Ribbons, D. W. (1971). ‘Methods in Microbiology’.V. 6B. Edited by J. R. Norris and D. W. Ribbons. Academic press, London. ‘Oxygen electrode measurements’ (Chapter II) pp. 29-52.). The reaction mixture contained air-saturated KH2PO4-buffer, 50 mM, pH 7.5 at 25° C. (thermostat). The oxygen-electrode was calibrated by the sodium-sulfite-method. Varying concentrations of substrate (0.01-0.3 mM) were added and the resulting decrease of oxygen was determined.
Assuming the Michaelis-Menten-equation, Vmax and Ks values were calculated by non-linear curve-fit by the program microcal-origin. KO2 was estimated by polarographic methods, adding non limiting amounts of substrate (0.5-1 mM) and graphically determining the oxygen concentration at the point of half of the maximum activity. Ks-values were similarly confirmed by polarographic methods, by stepwise addition of substrate to a final concentration of 20-150 μM.

[4] = target: T2, recombinant 1,3-dicarbonyl-dioxygenase (expressed in E.coli) (Acinetobacter johnsonii, UniProt Q8GNT2); assay: Relative activity of recombinant protein at non-limiting substrate concentrations; assay type: biochemical; details: relative activity, acetylacetone = 1.00, non-limiting substrate concentrations
T2 construct: made in house; host or cells: E. coli XL1 Blue, plasmid pMS470 (tac promoter, NdeI/HindIII)
Method: Expression constructs were expressed in E.coli XL1 Blue (Stratagene, La Jolla, Calif.), which was grown to an OD of 1 at 30° C. on rotatory shakers in erlenmeyer flasks, then induced with IPTG (0.3 mM) and incubated for another 5 hours.
as §1, §2

[5] = cited from earlier work
[6] = target: wild-type 1,3-dicarbonyl-dioxygenase (Acinetobacter johnsonii, UniProt Q8GNT2); assay: Relative activity of wild-type enzyme at non-limiting substrate concentrations; assay type: biochemical; details: relative activity, acetylacetone = 1.00, non-limiting substrate concentrations
Method: as §1, §2

[7] = tested on: Salmonella typhimurium; details: cited from earlier work
[8] = tested on: tRNA; details: cited from earlier work
[9] = target: T1, 1,3-dicarbonyl-dioxygenase; assay: Determination of enzyme-activity and stability versus pH and additives; assay type: physicochemical
Method: Activity measurements were performed with the oxygen-electrode, with KH2PO4-buffers adjusted to various pH-values [5.0-9.0]. For stability measurements, the enzyme was diluted ten-fold and incubated at various pH-values [5.0-9.0]. The activity was measured periodically with the UV-activity-assay.

[10] = tested on: CCCCCC(=O)CC(C)=O; assay: purified protein, by the assay type; details: other: apparent; photometric, oxygen-saturated buffer, substrate 10-200 μM; pH 7.5; 25.0 °C
[11] = tested on: CC(=O)C(C)C(C)=O; assay: purified protein, by the assay type; details: other: apparent; photometric, oxygen-saturated buffer, substrate 10-200 μM; pH 7.5; 25.0 °C
[12] = tested on: CC(=O)CC(=O)C(C)(C)C; assay: purified protein, by the assay type; details: other: apparent; photometric, oxygen-saturated buffer, substrate 10-200 μM; pH 7.5; 25.0 °C
[13] = tested on: CC(=O)C1CCCCC1=O; assay: purified protein, by the assay type; details: other: apparent; photometric, oxygen-saturated buffer, substrate 10-200 μM; pH 7.5; 25.0 °C
[14] = tested on: CC(=O)C1CCCC1=O; assay: purified protein, by the assay type; details: other: apparent; photometric, oxygen-saturated buffer, substrate 10-200 μM; pH 7.5; 25.0 °C
[15] = tested on: CCCCC(=O)CC(C)=O; assay: purified protein, by the assay type; details: other: apparent; photometric, oxygen-saturated buffer, substrate 10-200 μM; pH 7.5; 25.0 °C
[16] = repeated exposure, peroral and inhalation routes

With CC(=O)CC(C)=O [Acetylacetone, pentane-2,4-dione] the “Substrate % (remaining)” value ([1]; remaining substrate calculated) was 0%, the Acetate % ([1]; oxygen saturated buffer) was 50% and the Methylglyoxal % ([1]; oxygen saturated buffer) was 50%. The “acetate found per mmol of acetyl-acetone cleaved” value [2] was “one”, the “pH up to which the substrate is accepted by the enzyme” value ([3]; activity-pH-relationship studies) was no more than 9 and the Vmaxrel. ([3]; apparent, relative to acetylacetone = 1.00, purified wild-type enzyme) was 1.00. The KO2 ([3]; apparent, polarographic, estimated from rate of oxygen depletion, substrate 0.5-1 mM) was 38 ± 6 µM, the Vmax clone [4] was 1.00 and the fetotoxicity ([5]; in vivo) was “fetotoxicity was observed”. The immune system toxicity [5, 16] was “possible immune system toxicity”, the neurotoxicity [5, 16] was “central neurotoxicity” and the Vmax wild-type [6] was 1.00.

In the case of O=C1CC(=O)c2ccccc21 [1,3-indandione], the “inhibition of mutagenicity of aflatoxin B1” value [7] is given as “inhibit”, the “inhibition of mutagenicity of benzo[a]pyrene” value [7] is given as “inhibit” and the “inhibition of mutagenicity of methylnitrosourea” value ([7]; concomitant exposure to inhibitor and mutagen necessary) is given as “inhibit”. The “inhibition of binding to tRNA of aflatoxin B1” value [8] was “inhibited”.

For O[C@H](CS)[C@H](O)CS (racemic) [dithiothreitol], the “effect of potential stabilizing agent on enzyme stability” value (“effect of potential stabilizing agent” below) [9] was “did not enhance stability”.

For CC(=O)CC(=O)C(F)(F)F [1,1,1-trifluoroacetylacetone], the “inhibition of binding to tRNA of aflatoxin B1” value [8] is given as “inhibited”.

With OCCS [mercaptoethanol] the “effect of potential stabilizing agent” value [9] was “did not enhance stability”.

In the case of OCC(O)CO [glycerol], the “effect of potential stabilizing agent” value ([9]; glycerol 10%, glucose 12.5%, ascorbate 1 mM, bovine serum albumin 1-20 mg/mL, dithiothreitol 1 mM, mercaptoethanol 1 mM) is reported as “did not enhance stability”.

For O=C(CC(=O)c1ccccc1)c1ccccc1 [dibenzoylmethane], the “inhibition of mutagenicity of 2-naphthohydroxamic acid” value [7] is listed as “inhibit”, the “inhibition of mutagenicity of aflatoxin B1” value [7] is listed as “inhibit” and the “inhibition of mutagenicity of benzo[a]pyrene” value [7] is listed as “inhibit”. For the same molecule, the “inhibition of mutagenicity of methylnitrosourea” value [7] was “inhibit”, the “inhibition of binding to tRNA of aflatoxin B1” value [8] was “inhibited” and the “inhibition of binding to tRNA of benzo[a]pyrene” value [8] was “inhibited”.

With “1,3-dicarbonyl-dioxygenase (Acinetobacter johnsonii)” the Km [10] was 7.5 ± 2.1 µM, the Km [11] was 23.1 ± 6.8 µM and the Km [12] was 14.2 ± 3.7 µM. It also gave a Km [13] of 18.1 ± 4.2 µM, a Km [14] of 21.0 ± 6.1 µM and a Km [15] of 5.9 ± 1.5 µM.

For CC(=O)CC(=O)c1ccccc1 [benzoylacetone], the “inhibition of mutagenicity of 2-naphthohydroxamic acid” value [7] is listed as “inhibit” and the “inhibition of binding to tRNA of benzo[a]pyrene” value [8] is listed as “inhibited”.

B1: 1,3-dicarbonyl-dioxygenase: Purified A. johnsonii enzyme, about 67 kDa, subunits of about 16.6 kDa (SEQ ID NO: 2), cleaves 1,3-dicarbonyl compounds with molecular oxygen (protein)
chain: MDYCNKKHTAEEYVKISDNNYVPFPEAFSDGGITWQLLHSSPETSSWTAIFNCPAGSSFASHIHAGPGEYFLTKGKMEVRGGEQEGGSTAYAPSYGFESSGALHGKTFFPVESQFYMTFLGPLNFIDDNGKVIASIGWAEAQGAWLATKNEAA
For B1, the halftime-stability ([9]; 0.05 mg/mL protein concentration, 4° C.) was 3550 min, the “pH of maximum stability” value ([9]; enzyme incubated at pH 5.0-9.0) was 7.5-8.0 and the “pH of maximum activity” value ([9]; oxygen electrode, KH2PO4-buffers pH 5.0-9.0) was 6.0-7.5. The “apparent Vmax of the purified enzyme” value ([3]; acetylacetone as substrate) was 10.5 U/mgEnzyme.
